The values below come from patent publication US6982252B2, “Inhibition of vacuolar proton ATPase activity and/or the modulation of acidic organelle function sensitizes cells to radiation, chemotherapy and biological agents” (Memorial Sloan-Kettering Cancer Center, priority 2000, dated 2006).

Experiment [1] has as its system AVO-EM in irradiated MCF-7 cells. Description: Electron microscopy of AVO-EM. The class given is cell-based, human. The settings on record: 3-methyladenine 5 mM; 10 Gy; without it 94%. On the procedure:
Cell processing for electron microscopy and staining with N-(3-(2,4-dinitrophenyl)-N-(3-aminopropyl))methylamine dihydrochloride (DAMP; Molecular Probes, Eugene, Oreg.) was performed as set forth in Anderson et al., 1984, Proc. Natl. Acad. Sci. U.S.A. 81:4838-4842 and Dunn et al., 1990, J. Cell Biol. 110:1935-1945. The fraction of the cytoplasmic volume occupied by AVO (fractional volume of AVO) was quantified from electron micrographs according to Dunn and Lenk et al., (Dunn et al., 1990, J. Cell Biol. 110:1935-1945; Lenk et al., 1992, J. Cell Biol. 118:301-308). Digital Images of the micrographs were obtained using an Epson ES-1200S flat bed scanner with Adobe Photoshop version 5. The fractional volume was calculated with Image Pro Plus Version 3 and expressed as a percentage of the total cytoplasmic volume.

Experiment [2] relates to acidic vesicular organelles (AVO) in MCF-7 cells. Put plainly: Mean red/green fluorescence ratio in acridine orange stained cells by flow cytometry. It counts as cell-based, human. Here is the method: bFGF was added to cultures of MCF-7 cells at 10 ng/ml for 48 hours. TNF was added at 2.3 nM for 48 hours. PMA was added for 1 hour at a concentration of 30 nM, followed by rinsing of the cells and incubation for an additional 48 hours.
Cell staining was performed according to standard techniques (Arvan et al., 1984, J. Bio. Chem. 259:13567-13572; Mains and May, 1988, J. Biol. Chem. 263:7887-7894; Traganos and Darzynkiewicz, Methods in Cell Biology 41:185-194, Academic Press). Acridine orange (Polysciences, Warrington, Pa.) was added to a final concentration of 1 μg/ml for 15 minutes. Bafilomycin A1 (Sigma Chemical Co., St. Louis, Mo.) was dissolved in DMSO and added to the cells 30 minutes prior to the addition of acridine orange. LysoSensor Blue DND-167 (Molecular Probes, Eugene, Oreg.) at a final concentration of 10 μM was added for 8 minutes. Pictures were obtained with a fluorescence microscope (Olympus BH-2 RFCA), equipped with a mercury-100 W lamp, 490 nm band pass blue excitation filters, 500 nm dichroic mirror and a 515 nm long pass barrier filter. Images of control and irradiated cells were recorded on Kodak Elite II 100 ASA film for color slides by 4 seconds exposure.
In acridine orange stained cells the cytoplasm and nucleolus fluoresce bright green and dim red, while acidic compartments fluoresce bright red (Mains and May, 1988, J. Biol. Chem. 263:7887-7894; Traganos and Darzynkiewicz, Methods in Cell Biology Vol. 41, pp. 185-194, Academic Press). The intensity of the red fluorescence is proportional to the degree of acidity and/or the volume of the cellular acidic compartment. Therefore, by comparing the mean red/green fluorescence ratio within different cell populations, a change in the degree of acidity and/or the fractional volume of the cellular acidic compartment could be measured. Cells were stained with acridine orange for […], removed from the plate with trypsin-EDTA and collected in phenol red-free growth medium. Green (510-530 nm) and red (>650 nm) Fluoresence emission from 10,000 cells illuminated with blue (488 nm) excitation light was measured with a FACSCalibur from Becton Dickinson (San Jose, Calif.) using CellQuest software. The red to green fluorescence ratio for individual cells was calculated using FlowJo software (TREE STAR, Inc., San Carlos, Calif.). To control for possible effect of trypsinization on the measured red to green fluorescence ratio, the ratios were compared by flow cytometry with those obtained with a Laser Scanning Microscope (LSM510 from Zeiss). Stained cells, grown on cover glass, were illuminated with a 488 nm argon laser beam. The red (>650 nm) to green (505-545 nm) fluorescence ratio of an entire image was obtained using software LSM 510 version 2.01 SP2. These measurements yielded similar results to those obtained with flow cytometry. All determinations of red to green fluorescence ratio reported in this section were obtained via flow cytometry.

Experiment [3] has as its system AVO in MCF-7 cells. Description: Vital staining with acridine orange, fluorescence microscopy. It counts as cell-based, human. Conditions: pre-incubation with 300 μM chloroquine. Here is the method: Acridine orange (Polysciences, Warrington, Pa.) was added to a final concentration of 1 μg/ml for 15 minutes. […] Pictures were obtained with a fluorescence microscope (Olympus BH-2 RFCA), equipped with a mercury-100 W lamp, 490 nm band pass blue excitation filters, 500 nm dichroic mirror and a 515 nm long pass barrier filter. Images of control and irradiated cells were recorded on Kodak Elite II 100 ASA film for color slides by 4 seconds exposure.

In experiment [4] the test system is MCF-7 (human breast adenocarcinoma). Description: Clonogenic survival (surviving fraction) of MCF-7 cells after radiation or chemotherapeutic agent. The class given is cell-based. Conditions: for Surviving Fraction 100 nM Adriamycin / Surviving Fraction: Table 16. On the procedure: (§1) MCF-7 (human breast adenocarcinoma), LoVo (human colon adenocarcinoma) and LNCaP (human prostate carcinoma) were obtained from the American Type Culture Collection. Cells were maintained as described in Paglin et al., 1997, Biochem. Biophs. Res. Comm. 237:678-684). Irradiation was carried out 48 hours post-plating (T0) at room temperature using a Cs-137 irradiator (Sheperd Mark-I, model 68, SN643) at a dose rate of 2.43-2.32 Gy/min. Bovine aortic endothelial cells were grown and treated with H2O2 as described in Haimovitz-Friedman et al., 1994, J. Exp. Med. 180:525-535 and Verhij et al., 1996, Nature 380:75-79. Phorbol 12-myristate 13-acetate (PMA; Alexis Biochemicals Corp., San Diego, Calif.) was dissolved in dimethyl sulfoxide (DMSO) and added to cells for the duration of one hour. The final DMSO concentration was 0.03%. The cells were then rinsed with warm growth medium before being returned to the incubator for an additional 48 hours.
(§2) Cells were plated in growth medium at a density of 30-90 cells per square centimeter and irradiated 22 hours later. Each experimental condition was done in quintet or triplicate. Cells were irradiated at room temperature in Cs-137 Irradiator (Sheperd Mark-I, Model 68, SN 643) at a rate of 2.43-2.32 Gy/min. […] For determination of their red to green ratio, colonies were processed as described above. For determination of surviving fractions cells were stained with crystal violet and colonies containing 50 cells or more were counted with a dissecting microscope. The surviving fraction was defined as the ratio between the plating efficiencies of irradiated and non-irradiated cells and was calculated at each dose level according to Hall and Phill (1994, […] for the Radiologist, 4th Edition, J. Lippincott Co., Philadelphia).

The test system is the same in experiment [5]. Described as above. It counts as cell-based.
Experiment [6] relates to LoVo (human colon adenocarcinoma). Description: Clonogenic survival (surviving fraction) of LoVo cells after radiation or chemotherapeutic agent. The class given is cell-based. On the procedure: as §1, §2

“And” between values parts separate entries of the source, which are not always exact repeats. Equal entries are not always repeated. Marks after values point to notes of the source that are not given here.

As to `Cn1cnc(N)c2ncnc1-2` [3-methyladenine], the “fraction of cells containing AVO-EM” value in experiment [1] was 22%. Moreover, the “red to green ratio” value in experiment [2] (3-methyladenine 5 mM, 48 hours following radiation with 10 Gy, without it 1.77±0.01, n=3) was 1.15±0.01.

Regarding `CCN(CC)CCCC(C)Nc1ccnc2cc(Cl)ccc12` (stereo not drawn) [chloroquine], in experiment [3], the “acridine orange accumulation in the AVO” value is “inhibited acridine orange accumulation”.

z-VAD-fmk: the “mean red to green fluorescence ratio” value was 2.5 ± 0.04 in experiment [2] (z-VAD-fmk 50 μM added 1 hour before irradiation, 10 Gy, 24 hours following irradiation) and 1.4 ± 0.07 in experiment [2] (z-VAD-fmk 50 μM added 1 hour before, unirradiated, 24 hours).

In the case of `CC/C=C\C=C/C(=O)N/C=C/C[C@H]1C[C@@H](O)[C@@H](C)C/C=C/Cc2cccc(O)c2C(=O)O1` [Salicylihalamide A], the “decrease of survival of irradiated cells” value in experiment [4] (25 nM salicylihalamide A, 3 Gy) was found to be 30%. The “Surviving Fraction 0 Gy” value is recorded as 1.14 ± 0.07 in experiment [4] (Salicylihalamide A 12.5 nM); 0.92 ± 0.08 in experiment [4] (Salicylihalamide A 25 nM); “did not significantly affect” in experiment [4] (Salicylihalamide A 25 nM, listed as salicylihalamide A); 0.72 ± 0.09 in experiment [4] (Salicylihalamide A 50 nM); 0.53 ± 0.03 in experiment [4] (Salicylihalamide A 100 nM). For the same molecule, the “Surviving Fraction 3 Gy” value was 0.38 ± 0.03 in experiment [4] (Salicylihalamide A 12.5 nM, 3 Gy); 0.32 ± 0.03 in experiment [4] (Salicylihalamide A 25 nM, 3 Gy); 0.22 ± 0.04 in experiment [4] (Salicylihalamide A 50 nM, 3 Gy); 0.11 ± 0.02 in experiment [4] (Salicylihalamide A 100 nM, 3 Gy). The “Surviving Fraction 100 nM Adriamycin” value in experiment [4] (MCF-7, Salicilyhalamide 25 nM + 100 nM Adriamycin) is given as 0.79 ± 0.05; in experiment [4] (MCF-7, Salicilyhalamide 50 nM + 100 nM Adriamycin) it was 0.66 ± 0.04; in experiment [4] (MCF-7, Salicilyhalamide 100 nM + 100 nM Adriamycin), 0.57 ± 0.01. For the same molecule, the “Surviving Fraction” value is reported as 1.03 ± 0.03 in experiment [4] (MCF-7, Salicilyhalamide 25 nM alone); 0.95 ± 0.01 in experiment [4] (MCF-7, Salicilyhalamide 50 nM alone, listed as Salicilyhalamide); “minimal effect” in experiment [4] (MCF-7, Salicilyhalamide 50 nM alone, listed as salicylihalamide A); 0.78 ± 0.04 in experiment [4] (MCF-7, Salicilyhalamide 100 nM alone). Moreover, in experiment [5] (50 nM salicylihalamide A in combination with 100 nM Adriamycin), the decrease of survival turned out to be 25%.

Consider `CO[C@H]1C[C@@H]2CC[C@@H](C)[C@@](O)(O2)C(=O)C(=O)N2CCCC[C@H]2C(=O)O[C@H]([C@H](C)C[C@@H]2CC[C@@H](O)[C@H](OC)C2)CC(=O)[C@H](C)/C=C(\C)[C@@H](O)[C@@H](OC)C(=O)[C@H](C)C[C@H](C)/C=C/C=C/C=C/1C` [Rapamycin, rapamycin], for which the “Fold Increase in Red:Green 48 hrs” value was determined as 1.96 fold in experiment [2] (Table 21, MCF-7, 20 nM rapamycin); 2.31 fold in experiment [2] (Table 21, MCF-7, 50 nM rapamycin); 1.6 fold in experiment [2] (Table 22, Rapamycin 10 nM); 1.4 fold in experiment [2] (Table 22, Rapamycin 20 nM). In addition, the “Fold Increase in Red:Green 24 hrs” value in experiment [2] (Table 22, Rapamycin 10 nM) is 1.7 fold; in experiment [2] (Table 22, Rapamycin 20 nM) it was 1.7 fold.

For the molecule `C[C@]12CC[C@@H]3c4ccc(O)cc4CC[C@H]3[C@@H]1CC[C@@H]2O` [Estradiol], the “Fold increase of Red:Green” value in experiment [2] (Estradiol 10^−9 M alone) is listed as 1 fold. For the same molecule, in experiment [2] (estradiol 10^−9 M with tamoxifen, Table 23), the “inhibition of the effect of tamoxifen on appearance of acidic vesicular organelles” value is listed as 50%.

Take “bFGF: cytokine tested as inducer of acidic organelle formation”: the “Fold Increase in Red: Green” value in experiment [2] (MCF-7, bFGF 10 ng/ml for 48 hours) is 2.23 ± 0.18 (n = 3) fold.

Turning to `COc1cc([C@@H]2c3cc4c(cc3[C@@H](O[C@@H]3O[C@@H]5CO[C@@H](C)O[C@H]5[C@H](O)[C@H]3O)[C@H]3COC(=O)[C@H]23)OCO4)cc(OC)c1O` [Etoposide], the “cell survival (head of column empty)” value in experiment [6] (Table 19, Etoposide 0.05 μg/ml alone) is 0.78 ± 0.05; in experiment [4] (Table 18, MCF-7, Etoposide 0.05 μg/ml alone), “(0.79; 0.77) 0.78*”.

For the molecule `CC/C(=C(\c1ccccc1)c1ccc(OCCN(C)C)cc1)c1ccccc1` [Tamoxifen], the “Fold increase of Red:Green” value in experiment [2] (Tamoxifen 2 × 10^−6 M) is reported as 1.6 fold; in experiment [2] (Tamoxifen 2 × 10^−6 M + Estradiol 10^−9 M) it was 1.33 fold; in experiment [2] (Tamoxifen 10^−6 M), 1.5 fold; in experiment [2] (Tamoxifen 10^−6 M + Estradiol 10^−9 M) it was 1.25 fold.

Take `CCCCCCCCCCCCCC(=O)O[C@@H]1[C@@H](C)[C@@]2(O)[C@@H](C=C(CO)C[C@]3(O)C(=O)C(C)=C[C@@H]23)[C@@H]2C(C)(C)[C@]12OC(C)=O` [PMA, Phorbol 12-myristate 13-acetate]: the “Fold Increase in Red: Green” value in experiment [2] (MCF-7, PMA 30 nM for 1 hour, rinsed, additional 48 hours) was 1.7±0.3 fold and 1.7 ± 0.3 (n = 3) fold.

Take `COc1cccc2c1C(=O)c1c(O)c3c(c(O)c1C2=O)C[C@@](O)(C(=O)CO)C[C@@H]3O[C@H]1C[C@H](N)[C@H](O)[C@H](C)O1` [Adriamycin]: the figures for the “Surviving Fraction Without Bafilomycin” value in experiment [6] (Adriamycin 50 nM alone), in experiment [6] (Adriamycin 100 nM alone) and in experiment [6] (Adriamycin 150 nM alone) were 0.84 ± 0.01, 0.77 ± 0.01 and 0.47 ± 0.02, respectively. Also, the “survival, Adriamycin 100 nM” value in experiment [6] (Table 17, Adriamycin 100 nM alone, 48 hours) worked out at 0.94 ± 0.1. Also, in experiment [4] (MCF-7, 100 nM Adriamycin alone (Salicilyhalamide 0 nM)), the “Surviving Fraction 100 nM Adriamycin” value was 0.88 ± 0.08. Further, the “survival, column Adriamycin” value in experiment [5] (Table 15, 100 nM adriamycin alone (Bafilomycin 0 nM)) came out at 0.88 ± 0.08.
